# Experimental data: patent publication US6955900B1, “Methods for producing polypeptide binding sites, monoclonal antibodies and compositions thereof” (The Scripps Research Institute, priority 1993, dated 2005)
# What was measured:
# M21 melanoma cells = assay: adhesion of M21 melanoma cells to immobilized Fab or vitronectin; type: cell-based, human
# Description: When Fab 9 that contained an RGD binding site was used in cell adhesion assays, it blocked the melanoma cell adhesion to immobilized vitronectin with an IC50 of 4 nM in contrast to the framework antibody pMT12 that had no effect on cell adhesion. […] This finding provides further evidence that Fab 9 is specific to beta 3 integrins. In similar assays, Fab 9 was compared to vitronectin in the ability to support cellular adhesion. Both proteins supported the binding of cells saturating at approximately 5 ug/ml of Fab or vitronectin.
# This assay, performed as described in Example 4, was performed with whole cell adhesion assays using M21 melanoma cells because they adhere to RGD-ligands primarily via αvβ3. M21 cells were allowed to adhere to a concentration range from 1 to 10 ug/ml of immobilized Fab 9 and MTF-10.
# αvβ3 = target: T1, αvβ3 (Homo sapiens, UniProt P05106+P06756); assay: dissociation of 125I-ligand from purified αvβ3; conditions: two hour dissociation after four hours binding
# T1 construct: human placentas were obtained, cut into small pieces and extracted; from tissue
# Description: The binding of Fab 9 is shown as an example in this analysis, but its binding behavior was essentially identical to that of the MTF antibodies. The ability of ^125I-Fab 9 to dissociate from purified αvβ3 was compared to that of ^125I-vitronectin in purified ligand-receptor binding assays performed as described in Example 5B. Both ligands were incubated with purified αvβ3 for four hours. Then buffer containing radioligands was replaced with binding buffer lacking ligand to allow dissociation. An effort was also made to promote dissociation by adding 10 uM GRGDSP (SEQ ID NO 66) after the binding step. […] Following a two hour incubation to allow dissociation, buffer was removed and the amount of ^125I-ligand remaining bound to integrin was measured. The remaining bound ligand was compared to the amount of ligand bound at the beginning of the dissociation step.
# T1 sequence (P06756 31-889 limits assumed): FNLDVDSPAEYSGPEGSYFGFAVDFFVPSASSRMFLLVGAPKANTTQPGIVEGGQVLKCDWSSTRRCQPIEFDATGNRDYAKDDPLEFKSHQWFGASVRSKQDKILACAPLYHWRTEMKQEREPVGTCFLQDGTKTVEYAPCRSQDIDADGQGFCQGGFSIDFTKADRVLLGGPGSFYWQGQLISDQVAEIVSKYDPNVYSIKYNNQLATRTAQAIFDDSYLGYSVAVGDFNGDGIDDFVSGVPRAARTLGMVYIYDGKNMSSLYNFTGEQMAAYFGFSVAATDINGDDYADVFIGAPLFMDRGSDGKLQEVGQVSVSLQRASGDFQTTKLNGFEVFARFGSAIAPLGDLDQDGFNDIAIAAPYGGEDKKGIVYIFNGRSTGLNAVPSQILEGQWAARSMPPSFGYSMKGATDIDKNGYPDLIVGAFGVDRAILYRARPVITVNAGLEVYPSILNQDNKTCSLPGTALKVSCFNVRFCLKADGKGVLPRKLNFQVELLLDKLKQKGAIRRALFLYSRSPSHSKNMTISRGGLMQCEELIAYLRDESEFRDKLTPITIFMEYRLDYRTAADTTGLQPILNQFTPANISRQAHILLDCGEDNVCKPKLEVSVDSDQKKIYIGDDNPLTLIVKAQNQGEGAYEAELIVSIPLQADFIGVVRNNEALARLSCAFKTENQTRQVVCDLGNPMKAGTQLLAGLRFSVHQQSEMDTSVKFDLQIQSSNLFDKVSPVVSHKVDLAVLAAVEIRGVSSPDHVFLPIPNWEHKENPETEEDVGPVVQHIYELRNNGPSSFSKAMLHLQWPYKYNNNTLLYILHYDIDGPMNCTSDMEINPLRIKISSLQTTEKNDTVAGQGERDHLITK
# T1 sequence (P06756 891-1048 partner limits assumed): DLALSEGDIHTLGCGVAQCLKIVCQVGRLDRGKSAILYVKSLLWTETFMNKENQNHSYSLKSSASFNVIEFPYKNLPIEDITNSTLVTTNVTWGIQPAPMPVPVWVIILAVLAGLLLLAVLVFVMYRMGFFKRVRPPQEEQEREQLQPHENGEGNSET
# T1 sequence (P05106 27-788): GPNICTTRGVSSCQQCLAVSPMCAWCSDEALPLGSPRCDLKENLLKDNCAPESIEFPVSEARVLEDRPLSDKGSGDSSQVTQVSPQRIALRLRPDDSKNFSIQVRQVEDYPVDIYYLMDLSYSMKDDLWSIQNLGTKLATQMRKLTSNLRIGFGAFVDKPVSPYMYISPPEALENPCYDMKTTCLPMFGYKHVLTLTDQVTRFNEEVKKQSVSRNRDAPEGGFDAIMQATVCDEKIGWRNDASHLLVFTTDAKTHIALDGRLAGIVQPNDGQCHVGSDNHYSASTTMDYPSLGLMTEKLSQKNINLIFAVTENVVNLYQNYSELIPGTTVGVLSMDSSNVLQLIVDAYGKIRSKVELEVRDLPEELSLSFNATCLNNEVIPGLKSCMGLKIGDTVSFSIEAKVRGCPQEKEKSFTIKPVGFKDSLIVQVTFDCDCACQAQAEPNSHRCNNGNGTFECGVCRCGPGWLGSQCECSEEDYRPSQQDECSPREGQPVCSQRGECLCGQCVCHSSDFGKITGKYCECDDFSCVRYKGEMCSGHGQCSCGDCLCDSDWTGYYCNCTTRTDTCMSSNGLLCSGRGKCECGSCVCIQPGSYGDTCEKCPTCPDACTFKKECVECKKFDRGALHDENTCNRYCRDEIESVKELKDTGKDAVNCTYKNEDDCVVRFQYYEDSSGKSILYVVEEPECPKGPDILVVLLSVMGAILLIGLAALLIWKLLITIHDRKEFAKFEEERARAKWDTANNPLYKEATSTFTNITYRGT
substance,measurement,setting,value
vitronectin: natural high affinity ligand of αvβ3,coating concentration at which supported cell binding saturates,M21 melanoma cells,approximately 5 ug/ml
same,bound ligand that remained associated with αvβ3,αvβ3,greater than 65%
